PubChem BioAssay (NCI)
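Where inhibition never reached the appropriate level, the endpoint shown equals the highest concentration tested. Otherwise, values were interpolated linearly from a five-concentration, 48-hour dose response in 96-well plates. GI50 marks 50% less growth. TGI marks complete inhibition of growth.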

Columns and labels:
Experiment in all cases: growth of human tumour cells (NCI), 48 h
UACC-257 melanoma = system: UACC-257 melanoma
SW-620 colon = system: SW-620 colon
PC-3 prostate = system: PC-3 prostate
KM12 colon = system: KM12 colon
TK-10 renal = system: TK-10 renal
HS 578T breast = system: HS 578T breast
ACHN renal = system: ACHN renal
SNB-19 CNS = system: SNB-19 CNS
CCRF-CEM leukemia = system: CCRF-CEM leukemia
OVCAR-3 ovarian = system: OVCAR-3 ovarian
OVCAR-5 ovarian = system: OVCAR-5 ovarian
SF-539 CNS = system: SF-539 CNS
SN12C renal = system: SN12C renal
EKVX NSCLC = system: EKVX NSCLC
NCI-H226 lung = system: NCI-H226 lung
HCT-15 colon = system: HCT-15 colon
SF-295 CNS = system: SF-295 CNS
UACC-62 melanoma = system: UACC-62 melanoma
HOP-62 NSCLC = system: HOP-62 NSCLC
UO-31 renal = system: UO-31 renal
OVCAR-8 ovarian = system: OVCAR-8 ovarian
SNB-75 CNS = system: SNB-75 CNS
RPMI-8226 leukemia = system: RPMI-8226 leukemia
CAKI-1 renal = system: CAKI-1 renal
HCC-2998 colon = system: HCC-2998 colon
T-47D breast = system: T-47D breast
A498 renal = system: A498 renal
M14 melanoma = system: M14 melanoma
COLO 205 colon = system: COLO 205 colon
BT-549 breast = system: BT-549 breast
NCI-H522 lung = system: NCI-H522 lung
NCI/ADR-RES ovarian = system: NCI/ADR-RES ovarian
HOP-92 NSCLC = system: HOP-92 NSCLC
MOLT-4 leukemia = system: MOLT-4 leukemia
SF-268 CNS = system: SF-268 CNS
SK-MEL-5 melanoma = system: SK-MEL-5 melanoma
SK-MEL-2 melanoma = system: SK-MEL-2 melanoma
MCF7 breast = system: MCF7 breast
MALME-3M melanoma = system: MALME-3M melanoma
NCI-H460 lung = system: NCI-H460 lung
A549 NSCLC = system: A549 NSCLC
OVCAR-4 ovarian = system: OVCAR-4 ovarian
SR leukemia = system: SR leukemia
RXF 393 renal = system: RXF 393 renal
NCI-H23 lung = system: NCI-H23 lung
HL-60(TB) leukemia = system: HL-60(TB) leukemia
LOX IMVI melanoma = system: LOX IMVI melanoma
U251 CNS = system: U251 CNS
MDA-MB-435 = system: MDA-MB-435
786-0 renal = system: 786-0 renal
DU-145 prostate = system: DU-145 prostate
MDA-MB-231 breast = system: MDA-MB-231 breast
SK-MEL-28 melanoma = system: SK-MEL-28 melanoma
IGROV1 ovarian = system: IGROV1 ovarian
SK-OV-3 ovarian = system: SK-OV-3 ovarian
HT29 colon = system: HT29 colon
HCT-116 colon = system: HCT-116 colon
K-562 leukemia = system: K-562 leukemia

C=C(C)[C@@H]1CC[C@]2(C(N)=O)CC[C@]3(C)[C@H](CC[C@@H]4[C@@]5(C)C/C(=C/c6cccnc6)C(=O)C(C)(C)[C@@H]5CC[C@]43C)[C@@H]12
GI50 (UACC-257 melanoma): 7.2 µM | TGI (UACC-257 melanoma): > 100 µM | GI50 (SW-620 colon): 8.82 µM | TGI (SW-620 colon): > 100 µM | GI50 (PC-3 prostate): 2.36 µM | TGI (PC-3 prostate): 25.6 µM | GI50 (KM12 colon): 4.67 µM | TGI (KM12 colon): 64.1 µM | GI50 (TK-10 renal): 24.7 µM | TGI (TK-10 renal): > 100 µM | GI50 (HS 578T breast): 17.9 µM | TGI (HS 578T breast): > 100 µM | GI50 (ACHN renal): 4.96 µM | TGI (ACHN renal): > 100 µM | GI50 (SNB-19 CNS): 9.22 µM | TGI (SNB-19 CNS): > 100 µM | GI50 (CCRF-CEM leukemia): 4.48 µM | TGI (CCRF-CEM leukemia): > 100 µM | GI50 (OVCAR-3 ovarian): 5.91 µM | TGI (OVCAR-3 ovarian): 43.8 µM | GI50 (OVCAR-5 ovarian): 12.7 µM | TGI (OVCAR-5 ovarian): 39.7 µM | GI50 (SF-539 CNS): 10.9 µM | TGI (SF-539 CNS): 33.3 µM | GI50 (SN12C renal): 5.88 µM | TGI (SN12C renal): > 100 µM | GI50 (EKVX NSCLC): 4.99 µM | TGI (EKVX NSCLC): 67 µM | GI50 (NCI-H226 lung): 6.9 µM | TGI (NCI-H226 lung): 60.7 µM | GI50 (HCT-15 colon): 4.4 µM | TGI (HCT-15 colon): > 100 µM | GI50 (SF-295 CNS): 3.84 µM | TGI (SF-295 CNS): 42.3 µM | GI50 (UACC-62 melanoma): 5.97 µM | TGI (UACC-62 melanoma): 29.9 µM | GI50 (HOP-62 NSCLC): 12.4 µM | TGI (HOP-62 NSCLC): > 100 µM | GI50 (UO-31 renal): 3.08 µM | TGI (UO-31 renal): > 100 µM | GI50 (OVCAR-8 ovarian): 9.96 µM | TGI (OVCAR-8 ovarian): > 100 µM | GI50 (SNB-75 CNS): 8.63 µM | TGI (SNB-75 CNS): > 100 µM | GI50 (RPMI-8226 leukemia): 2.44 µM | TGI (RPMI-8226 leukemia): 22.1 µM | GI50 (CAKI-1 renal): 2.56 µM | TGI (CAKI-1 renal): 21.2 µM | GI50 (HCC-2998 colon): 9.04 µM | TGI (HCC-2998 colon): > 100 µM | GI50 (T-47D breast): 3.99 µM | TGI (T-47D breast): > 100 µM | GI50 (A498 renal): 23.8 µM | TGI (A498 renal): > 100 µM | GI50 (M14 melanoma): 8.05 µM | TGI (M14 melanoma): > 100 µM | GI50 (COLO 205 colon): 7.14 µM | TGI (COLO 205 colon): 27.6 µM | GI50 (BT-549 breast): 8.89 µM | TGI (BT-549 breast): > 100 µM | GI50 (NCI-H522 lung): 6.77 µM | TGI (NCI-H522 lung): 63 µM | GI50 (NCI/ADR-RES ovarian): 7.13 µM | TGI (NCI/ADR-RES ovarian): > 100 µM | GI50 (HOP-92 NSCLC): 3.21 µM | TGI (HOP-92 NSCLC): > 100 µM | GI50 (MOLT-4 leukemia): 3.14 µM | TGI (MOLT-4 leukemia): > 100 µM | GI50 (SF-268 CNS): 7.52 µM | TGI (SF-268 CNS): > 100 µM | GI50 (SK-MEL-5 melanoma): 5.42 µM | TGI (SK-MEL-5 melanoma): 17.6 µM | GI50 (SK-MEL-2 melanoma): 12.1 µM | TGI (SK-MEL-2 melanoma): 39.8 µM | GI50 (MCF7 breast): 3.49 µM | TGI (MCF7 breast): > 100 µM | GI50 (MALME-3M melanoma): 7.54 µM | TGI (MALME-3M melanoma): 41.7 µM | GI50 (NCI-H460 lung): 8.32 µM | TGI (NCI-H460 lung): 25.1 µM | GI50 (A549 NSCLC): 3.84 µM | TGI (A549 NSCLC): > 100 µM | GI50 (OVCAR-4 ovarian): 4.28 µM | TGI (OVCAR-4 ovarian): > 100 µM | GI50 (SR leukemia): 5.1 µM | TGI (SR leukemia): > 100 µM | GI50 (RXF 393 renal): 3.41 µM | TGI (RXF 393 renal): 16.4 µM | GI50 (NCI-H23 lung): 14.7 µM | TGI (NCI-H23 lung): > 100 µM | GI50 (HL-60(TB) leukemia): 3.15 µM | TGI (HL-60(TB) leukemia): 13.9 µM | GI50 (LOX IMVI melanoma): 5.89 µM | TGI (LOX IMVI melanoma): 18.6 µM | GI50 (U251 CNS): 7.3 µM | TGI (U251 CNS): 47.2 µM | GI50 (MDA-MB-435): 5.52 µM | TGI (MDA-MB-435): > 100 µM | GI50 (786-0 renal): 14.7 µM | TGI (786-0 renal): > 100 µM | GI50 (DU-145 prostate): 8.36 µM | TGI (DU-145 prostate): > 100 µM | GI50 (MDA-MB-231 breast): 15.2 µM | TGI (MDA-MB-231 breast): > 100 µM | GI50 (SK-MEL-28 melanoma): 8.81 µM | TGI (SK-MEL-28 melanoma): 33.2 µM | GI50 (IGROV1 ovarian): 14 µM | TGI (IGROV1 ovarian): > 100 µM | GI50 (SK-OV-3 ovarian): 10.6 µM | TGI (SK-OV-3 ovarian): > 100 µM | GI50 (HT29 colon): 6.03 µM | TGI (HT29 colon): 52.7 µM | GI50 (HCT-116 colon): 3.96 µM | TGI (HCT-116 colon): 66.4 µM | GI50 (K-562 leukemia): 3.75 µM | TGI (K-562 leukemia): > 100 µM
